The values below come from publication PMC4866688, “Trypanosoma brucei DHFR-TS Revisited: Characterisation of a Bifunctional and Highly Unstable Recombinant Dihydrofolate Reductase-Thymidylate Synthase” (PLoS Neglected Tropical Diseases, 2016).

SMILES strings stand for the structures.

In this test the target is T1, T. brucei TS (Tsf-TbDHFR-TS) (Trypanosoma brucei brucei, UniProt Q27783).
T1 construct: The open reading frame of DHFR-TS was amplified by PCR from T. brucei gDNA using specific oligonucleotides; made in house; host or cells: thyA- E. coli derived from BL21 Star (DE3); unpurified clarified lysate
T1 sequence (Q27783 whole entry): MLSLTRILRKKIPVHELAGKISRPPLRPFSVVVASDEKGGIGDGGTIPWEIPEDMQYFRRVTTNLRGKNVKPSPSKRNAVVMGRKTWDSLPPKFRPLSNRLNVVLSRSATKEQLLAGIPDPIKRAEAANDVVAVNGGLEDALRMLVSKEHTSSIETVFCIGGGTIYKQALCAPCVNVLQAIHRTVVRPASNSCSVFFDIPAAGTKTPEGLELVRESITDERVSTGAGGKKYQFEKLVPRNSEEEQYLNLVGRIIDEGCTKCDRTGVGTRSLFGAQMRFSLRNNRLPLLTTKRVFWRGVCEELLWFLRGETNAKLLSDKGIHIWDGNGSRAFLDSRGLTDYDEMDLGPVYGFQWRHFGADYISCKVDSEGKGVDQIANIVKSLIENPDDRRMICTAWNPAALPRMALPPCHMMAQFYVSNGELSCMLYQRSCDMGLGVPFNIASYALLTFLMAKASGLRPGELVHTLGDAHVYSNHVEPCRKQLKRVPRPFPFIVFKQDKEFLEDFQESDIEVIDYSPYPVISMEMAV
T1 sequence (P0A6P1 whole entry partner): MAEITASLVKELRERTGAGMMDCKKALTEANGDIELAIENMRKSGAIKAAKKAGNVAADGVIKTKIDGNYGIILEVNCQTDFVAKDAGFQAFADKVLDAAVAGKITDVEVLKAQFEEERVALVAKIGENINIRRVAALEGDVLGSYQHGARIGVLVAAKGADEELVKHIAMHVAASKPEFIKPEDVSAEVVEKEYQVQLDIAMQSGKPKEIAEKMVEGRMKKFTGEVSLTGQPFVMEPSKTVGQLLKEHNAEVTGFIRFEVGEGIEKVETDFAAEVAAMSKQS
Kind of test: Kinetic analysis of TS activity (substrates). Type of test: biochemical. As to conditions: clarified E. coli lysate, radiometric assay; read-out: CH2THF Km^app. The method, then: The initial characterisation of TS was also carried out using a spectrophotometric assay. Owing to the pronounced instability of the recombinant protein, clarified ThyA^- E. coli lysates were used for characterisation, where the concentration of TS was calculated based on DHFR activity. […] . Enzymatic reactions were initiated by the addition of CH2THF (200 μM, Shircks Laboratories) and initial rates of CH2THF oxidation to DHF monitored by the increase in absorbance at 340 nm (ε = 6,200 M^-1 cm^-1). This method is not suitable for determination of the Km^app for CH2THF and a radiometric method was used instead. This method measures the release of tritiated water from 5-[^3H]-dUMP (American Radiochemicals, 14.3 Ci mmol^-1). Assays (40 μl final volume) contained 200 nM TS and varying amounts of CH2THF (37.5 μM– 4.8 mM) in DHFR-assay buffer. Reactions were initiated by adding 200 μM [^3H]-dUMP (5.55 × 10^5 dpm nmol^-1) and stopped after 10 min by the addition of 20 μl trichloroacetic acid. Residual 5-[^3H]-dUMP was removed by the addition of 200 μl of 10% (w/v) activated charcoal (Sigma). Aliquots (100 μl) of the supernatants were added to 2 ml of scintillation fluid (Pico-Fluor 40™, Packard Bioscience) and radioactivity determined using a Beckmann LS 6500 Scintillation Counter. […] Protein concentrations were determined using the BioRad protein assay based on the method of Bradford. […]

One may read the Km as the concentration of substrate that gives half-maximal velocity. For `Nc1nc2c(c(=O)[nH]1)N1CN(c3ccc(C(=O)N[C@@H](CCC(=O)O)C(=O)O)cc3)CC1CN2` (stereo partly shown) [CH2THF, N^5, N^10-methylenetetrahydrofolate], the Michaelis constant (Km) amounted to 470 ± 50 µM.
